Measurements published in patent US9260376B2, “Compounds for use in the treatment of immune related inflammatory disease” (VENANTIUS LIMITED, priority 2011, dated 2016).

System: IL2 release from Jurkat cells (T cell line Jurkat 6.1)
Assay: Effect of compounds on IL-2 secretion in T lymphocytes (anti-CD3/anti-CD28 stimulated, ELISA)
Assay type: cell-based
Conditions: control inhibitors; plates 2 and 3
Protocol: The T cell line Jurkat 6.1 (ATCC) was used. Cells were pre-treated for 30 min with 1 μM or 10 μM of the respective compound and then stimulated with plate-bound anti-CD3 (BD Pharmingen) and anti-CD28 (AnCell). DMSO was used as vehicle control. […] After 24 hs the supernatant was collected and IL-2 secretion was measured by ELISA.
Compounds were prepared by dissolution in DMSO to yield final concentrations of 1 and 10 μg/ml

Compound: CN[C@@H]1C[C@H]2O[C@@](C)([C@@H]1OC)n1c3ccccc3c3c4c(c5c6ccccc6n2c5c31)C(=O)NC4 [Stauros]
- IL-2 pg/ml: 117.75 pg/mL
